We go through ten compounds from patent publication US6271238A, “Acetamide derivatives and protease inhibitors” (Nippon Kayaku Kabushiki Kaisha, priority 1996, dated 2001).

In one assay the target is T1, dog chymase (Canis lupus familiaris, UniProt P21842).
T1 construct: 60 g dog heart was finely divided by scissors and a scalpel; from tissue; host or cells: dog heart
T1 sequence (P21842 22-249): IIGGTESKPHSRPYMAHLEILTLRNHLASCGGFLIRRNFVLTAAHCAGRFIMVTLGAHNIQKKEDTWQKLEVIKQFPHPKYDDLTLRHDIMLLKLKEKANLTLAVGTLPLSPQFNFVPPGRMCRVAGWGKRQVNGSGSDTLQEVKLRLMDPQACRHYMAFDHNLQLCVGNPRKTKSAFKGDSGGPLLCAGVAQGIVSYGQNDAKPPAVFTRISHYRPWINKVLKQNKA
The assay is described as follows: Inhibitory activity on dog chymase (angiotensin I as substrate). The class given is biochemical. As to conditions: pH 8.0, 37° C., 60 min, read-out: Dog Chymase (IC50: nM), 50% inhibitory concentration. The text has this:
It is known that chymase is present in tissues of various animals, and its isolation and purification methods are described in Anal. Biochem., 137, 449 (1984) and FEBS Letters, 323, 119 (1993). In the present invention, chymase was purified by the methods described in these literatures, and the present compounds were examined for inhibitory activity on chymase, inhibitory action on activation of mast cells and eosinophils, and pharmacological action in animals. Hereinafter, specific methods are described. (c) Preparation of dog chymase 60 g dog heart was finely divided by scissors and a scalpel, suspended in 0.1 M phosphate buffer (pH 8.0), and disrupted by a Polytron homogenizer for 5 minutes to prepare a crude chymase enzyme solution. It was centrifuged at 22000×g for 15 minutes, and the precipitates were used as a chymase enzyme fraction. […] An active fraction decomposing the synthetic chymase substrate was recovered and concentrated and this product was used as a purified dog chymase in the following activity measurement. (D) Measurement of inhibitory activity on chymase (b) Measurement using angiotensin I as substrate The inhibitory activity on the human chymase and dog chymase was measured using angiotensin I (Peptide Kenkyusho) as substrate besides the above synthetic substrate. […] After the end of the reaction, produced angiotensin II was immediately measured by high performance liquid chromatography to determine the activity of the chymase to calculate 50% inhibitory concentration (IC50: nM). The test was conducted several times. Chymase was prepared for each test in the manner described above. The compounds examined were compounds prepared in the above-described examples. […] 50% Inhibitory concentration (IC50: nM) of each compound toward rat chymase, dog […] human […] Substrate: Succinyl leucyl leucyl valyl tyrosyl methylcoumarylamide (for rat […] angiotensin I (for human and dog chymase)

A further assay addresses T2, rat chymase (Rattus norvegicus, UniProt P09650).
T2 construct: 50 g rat tongue was finely divided by scissors and a scalpel; from tissue; host or cells: rat tongue
T2 sequence (P09650 21-260): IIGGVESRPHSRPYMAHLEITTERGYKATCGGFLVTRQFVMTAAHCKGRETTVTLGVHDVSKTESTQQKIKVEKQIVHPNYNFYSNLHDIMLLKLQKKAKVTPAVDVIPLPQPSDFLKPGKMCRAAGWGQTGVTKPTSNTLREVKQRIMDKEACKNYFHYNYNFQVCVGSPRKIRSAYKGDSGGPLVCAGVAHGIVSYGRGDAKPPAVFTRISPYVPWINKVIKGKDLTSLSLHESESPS
Briefly: Inhibitory activity on rat chymase (synthetic substrate). The class given is biochemical. As to the method:
In the present invention, chymase was purified by the methods described in these literatures, and the present compounds were examined for inhibitory activity on chymase, inhibitory action on activation of mast cells and eosinophils, and pharmacological action in animals. Hereinafter, specific methods are described. […] 50 g rat tongue was finely divided by scissors and a scalpel, suspended in 0.1 M phosphate buffer (pH 8.0), and disrupted by a Polytron homogenizer for 5 minutes to prepare a crude chymase enzyme solution. […] The supernatant was applied to an octyl Sepharose 4B column (40×100 mm) previously equilibrated with 0.1 M phosphate buffer (pH 8.0) containing 2 M sodium chloride and 5% ammonium sulfate, and the protein was eluted with a linear concentration gradient of from 2 M to 0 M sodium chloride. […] (D) Measurement of inhibitory activity on chymase (a) Measurement using the synthetic substrate The synthetic chymase substrate was used for measurement of the inhibitory activity on the rat chymase as a subtrate, and the fluorescence of formed aminomethylcoumarin after reaction was measured by a spectrophotometer. […] The test was conducted several times. Chymase was prepared for each test in the manner described above. The compounds examined were compounds prepared in the above-described examples. […] Succinyl leucyl leucyl valyl tyrosyl methylcoumarylamide (for rat […] angiotensin I (for human and dog chymase)

Another assay has as its system guinea pig eosinophils. Briefly: Inhibitory action on eosinophils (release of active oxygen from guinea pig eosinophils). Format: cell-based. As to conditions: Cavia porcellus, Eosinophil, 5 min, PAF, luminol chemiluminescence for 5 minutes. As to the method:
Inhibitory activity on eosinophil activation
(A) Preparation of eosinophils
Polymyxin B (produced by Sigma) was administered intraperitoneally into a guinea pig (Hartley, male, 6-week-old) at a dosage of 1 mg once every week for 6 to 8 weeks. After the final administration of polymyxin B. 50 ml of PBS (phosphate-buffered saline) was injected into the intraperitoneal cavity of the guinea pig, and cells were recovered. The cells were centrifuged at 800 rpm for 5 minutes and the abdomen infiltration cells were collected as precipitates and then suspended in 1 ml of 40% Ficoll (40% Ficoll (produced by Pharmacia), HBSS (Hanks' balanced salt solution) and layered on a Ficoll discontinuous density gradient (40 to 90%). It was centrifuged at 1500 rpm for 40 minutes, and the eosinophil fraction was recovered. In this operation, eosinophils of 99% or more purity were usually obtained. Further, the cells were washed twice with RPMI 1640 medium (10% BSA (bovine serum albumin available from Boehringer Mannheim), suspended again at a predetermined density, and used in the objective experiment.
(B) Inhibitory action on eosinophils (inhibitory action on release of active oxygen from guinea pig eosinophils)
The eosinophils (99% or more purity) obtained by the Ficoll density gradient method in (A) above were suspended at a cell density of 4×10^5 in a buffer solution (0.136 M sodium chloride, 2.7 mM potassium chloride, 1.8 mM calcium chloride, 1.0 mM magnesium chloride, 11.9 mM sodium hydrogen carbonate, 5.5 mM D-glucose, 5.0 mM HEPES, 0.36 mM sodium dihydrogen phosphate, pH 7.2). Each drug (2 μl) and 180 μl of the cell suspension were put to a 96-well multi-well plate (for chemiluminescence measurement, white type) previously kept at 37° C., and incubated at 37° C. for 10 minutes. After incubation, 20 μl of PAF (platelet-activating factor) (5×10^-6 M) and 20 μl of a luminol solution were added to it and immediately examined for its chemiluminescence (Luminoskan Labosystem). The chemiluminescence for 5 minutes were measured to calculate 50% inhibitory concentration (IC50: μM).

For a further assay, the target named is T3, Human factor Xa (Homo sapiens, UniProt P00742).
T3 construct: human factor Xa
Briefly: Inhibitory activity on proteases other than chymase: human factor Xa. Format: biochemical. As to the method:
(E) Measurement of inhibitory activity on proteases other than chymase
The inhibitory activity of the present compounds on human elastase, human cathepsin G, human urokinase, human thrombin, human plasmin, and human factor Xa was determined using their corresponding synthetic substrates in the same manner as for chymase. All the above proteases were those commercially available from Boehringer Mannheim or purified by a combination of known methods. The synthetic substrates were those produced by Peptide Renkyusho. The synthetic substrates for the respective proteases are as follows.
Human factor Xa Phenylmethyloxycarbonyl pyridyl glycyl arginyl
The test was conducted several times. Chymase was prepared for each test in the manner described above. The compounds examined were compounds prepared in the above-described examples.

Setting [1] is: substrate succinyl leucyl leucyl valyl tyrosyl methylcoumarylamide, pH 8.0, 37° C., 15 min, read-out: Rat Chymase (IC50: nM), 50% inhibitory concentration.

Counter-ions that a name gives are not always drawn. Like-named read-outs stand apart in the source and are kept apart here.

T3 sequence (P00742 235-488 limits assumed): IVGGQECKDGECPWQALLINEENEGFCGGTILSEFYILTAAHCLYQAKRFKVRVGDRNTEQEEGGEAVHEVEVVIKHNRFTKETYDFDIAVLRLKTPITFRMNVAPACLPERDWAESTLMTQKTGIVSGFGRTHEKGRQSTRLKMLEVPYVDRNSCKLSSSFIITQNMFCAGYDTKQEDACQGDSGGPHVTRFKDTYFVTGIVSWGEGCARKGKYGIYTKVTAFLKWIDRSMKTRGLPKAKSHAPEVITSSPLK
T3 sequence (P00742 41-179 partner limits assumed): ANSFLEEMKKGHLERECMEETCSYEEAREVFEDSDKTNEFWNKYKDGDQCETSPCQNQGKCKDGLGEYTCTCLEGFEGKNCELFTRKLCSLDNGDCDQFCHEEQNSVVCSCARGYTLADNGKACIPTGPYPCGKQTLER

With `Nc1cnc(-c2ccccc2)n(CC(=O)NC(Cc2ccccc2)C(=O)C(=O)CCCc2ccccc2)c1=O` (centres unmarked) [Compound 40], the IC50 at dog chymase is 13 nM; at rat chymase (setting [1]), 46 nM; with guinea pig eosinophils, 5.6 µM; on Human factor Xa, more than 10000 nM.

`CCCCC(=O)C(=O)C(Cc1ccccc1)NC(=O)Cn1c(-c2ccccc2)ncc(N)c1=O` (centres unmarked) [Compound 44]: the figures for the IC50 at dog chymase, on rat chymase (setting [1]) and with guinea pig eosinophils were 16 nM, 79 nM and 18 µM, respectively.

As to `CC(=O)C(=O)C(Cc1cccc(F)c1)NC(=O)Cn1c(-c2ccccc2)ncc(N)c1=O` (centres unmarked) [Compound 52, 2-(5-Amino-6-oxo-2-phenyl-1,6-dihydropyrimidine-1-yl)-N-{1-(3-fluorophenyl)methyl-2,3-dioxo}butylacetamide], the IC50 at dog chymase was 27 nM; at rat chymase (setting [1]), 190 nM; with guinea pig eosinophils, 26 µM; at Human factor Xa, more than 10000 nM.

As for `CCOC(=O)CCCC(=O)C(=O)C(Cc1cccc(F)c1)NC(=O)Cn1c(-c2ccccc2)ncc(N)c1=O` (centres unmarked) [Compound 54], the IC50 on dog chymase is 3.6 nM; on rat chymase (setting [1]), 45 nM; in the assay on guinea pig eosinophils, 62 µM.

In the case of `CC(C)(C)OC(=O)Nc1cnc(-c2ccccc2)n(CC(=O)NC(Cc2ccccc2)C(=O)C(=O)CCCn2ccccc2=O)c1=O` (centres unmarked) [Compound 72, 2-(5-t-Butyloxycarbonylamino-6-oxo-2-phenyl-1,6-dihydropyrimidine-1-yl)-N-{2,3-dioxo-6-(2-oxo-1,2-dihydropyridine-1-yl)-1-phenylmethyl}hexylacetamide], the IC50 at dog chymase was 1.6 nM; at rat chymase (setting [1]), 2100 nM; at Human factor Xa, more than 10000 nM.

In the case of `Nc1cnc(-c2ccccc2)n(CC(=O)NC(Cc2ccccc2)C(=O)C(=O)CCCn2ccccc2=O)c1=O` (centres unmarked) [Compound 73, 2-(5-Amino-6-oxo-2-phenyl-1,6-dihydropyrimidine-1-yl)-N-{2,3-dioxo-1-phenylmethyl-6-(2-oxo-1,2-dihydropyridine-1-yl)}hexylacetamide hydrochloride], the values for the IC50 on dog chymase, on rat chymase (setting [1]) and in the assay on guinea pig eosinophils were 2.9 nM, 550 nM and 3 µM, respectively.

In the case of `CC(C)(C)OC(=O)Nc1cnc(-c2ccccc2)n(CC(=O)NC(Cc2ccccc2)C(=O)C(=O)CCCOc2ccccn2)c1=O` (centres unmarked) [Compound 74, 2-(5-t-Butyloxycarbonylamino-6-oxo-2-phenyl-1,6-dihydropyrimidine-1-yl)-N-{2,3-dioxo-6-(2-pyridyloxy)-1-phenylmethyl}hexylacetamide], the IC50 on dog chymase was 0.92 nM; at rat chymase (setting [1]), 510 nM; on Human factor Xa it was more than 10000 nM.

`O=CNc1cnc(-c2ccccc2)n(CC(=O)NC(Cc2ccccc2)C(=O)C(=O)CCCOc2ccccn2)c1=O` (centres unmarked) [Compound 79, 2-(5-Formylamino-6-oxo-2-phenyl-1,6-dihydropyrimidine-1-yl)-N-{2,3-dioxo-1-phenylmethyl-6-(2-pyridyloxy)}hexylacetamide]: the IC50 was 0.32 nM at dog chymase, 19 nM at rat chymase (setting [1]) and more than 10000 nM on Human factor Xa.

On to `CC(=O)Nc1cnc(-c2ccccc2)n(CC(=O)NC(Cc2ccccc2)C(=O)C(=O)CCCOc2ccccn2)c1=O` (centres unmarked) [Compound 80, 2-(5-Acetylamino-6-oxo-2-phenyl-1,6-dihydropyrimidine1-yl)-N-{2,3-dioxo-1-phenylmethyl-6-(-2-pyridyloxy)}hexyl-acetamide], for which the IC50 was 0.35 nM on dog chymase, 52 nM on rat chymase (setting [1]) and more than 10000 nM on Human factor Xa.

For `O=C(Cn1c(-c2ccccc2)ncc(NS(=O)(=O)NCc2ccccc2)c1=O)NC(Cc1ccccc1)C(=O)C(=O)CCCOc1ccccn1` (centres unmarked) [Compound 82, 2-(5-Benzylaminosulfonylamino-6-oxo-2-phenyl-1,6-dihydropyrimidine-1-yl)-N-{2,3-dioxo-1-phenylmethyl-6-(2-pyridyloxy)}hexylacetamide], the IC50 on dog chymase was 0.14 nM; on rat chymase, 19 nM; on Human factor Xa it was more than 10000 nM.
